According to paper PMC6270635, “Phenolic Esters of O-Desmethylvenlafaxine with Improved Oral Bioavailability and Brain Uptake” (Molecules, 2013):

How the values were obtained:
[1] = set-up: method as in PMID 23517291, PMID 23334675; conditions: ODV as the succinate salt; cited from earlier work
[2] = cited from earlier work
[3] = set-up: method as in PMID 21925241; conditions: rat, oral administration; cited from earlier work

Compound | melting point [°C] | also measured
CN(C)CC(c1ccc(OC(=O)c2ccoc2)cc1)C1(O)CCCCC1 (stereo not shown) [1g, 4-(2-(Dimethylamino)-1-(1-hydroxycyclohexyl)ethyl)phenyl furan-3-carboxylate] | 159 to 162 | 
CN(C)CC(c1ccc(O)cc1)C1(O)CCCCC1 (stereo not shown) [ODV, O-Desmethylvenlafaxine] |  | minimum effective dose [1]: 50 mg/day; bioavailability in humans [2]: ca. 80%
CN(C)CC(c1ccc(OC(=O)c2ccsc2)cc1)C1(O)CCCCC1 (stereo not shown) [1h, 4-(2-(Dimethylamino)-1-(1-hydroxycyclohexyl)ethyl)phenyl thiophene-3-carboxylate] | 168 to 172 | 
CN(C)CC(c1ccc(OC(=O)C(C)(C)C)cc1)C1(O)CCCCC1 (stereo not shown) [1a, 4-(2-(Dimethylamino)-1-(1-hydroxycyclohexyl)ethyl)phenyl pivalate] | 131 to 133 | 
CN(C)CC(c1ccc(OC(=O)c2cccnc2)cc1)C1(O)CCCCC1 (stereo not shown) [1i, 4-(2-(Dimethylamino)-1-(1-hydroxycyclohexyl)ethyl)phenyl nicotinate] | 180 to 182 | 
COc1ccc(C(=O)Oc2ccc(C(CN(C)C)C3(O)CCCCC3)cc2)cc1 (stereo not shown) [1k, 4-(2-(Dimethylamino)-1-(1-hydroxycyclohexyl)ethyl)phenyl 4-methoxybenzoate] | 133 to 137 | relative bioavailability compared with ODV [3]: higher relative bioavailability than ODV
CN(C)CC(c1ccc(OC(=O)C=Cc2ccccc2)cc1)C1(O)CCCCC1 (stereo not shown) [1m, 4-(2-(Dimethylamino)-1-(1-hydroxycyclohexyl)ethyl)phenyl cinnamate] | 118 to 122 | 
CN(C)CC(c1ccc(OC(=O)c2ccc3c(c2)OCCO3)cc1)C1(O)CCCCC1 (stereo not shown) [1o, 4-(2-(Dimethylamino)-1-(1-hydroxycyclohexyl)ethyl)phenyl 2,3-dihydrobenzo[b][1,4]dioxine-6-carboxylate] | 159 to 162 | 
CN(C)CC(c1ccc(OC(=O)CCc2ccccc2)cc1)C1(O)CCCCC1 (stereo not shown) [1l, 4-(2-(Dimethylamino)-1-(1-hydroxycyclohexyl)ethyl)phenyl 3-phenylpropanoate] | 124 to 127 | 
CN(C)CC(c1ccc(OC(=O)c2ccc3c(c2)OCO3)cc1)C1(O)CCCCC1 (stereo not shown) [1n, 4-(2-(Dimethylamino)-1-(1-hydroxycyclohexyl)ethyl)phenyl benzo[d][1,3]dioxole-5-carboxylate] | 154 to 157 | 

Second part, led by results:

melting point [°C] | Compound | also measured
122 to 124 | CN(C)CC(c1ccc(OC(=O)C2CCCCC2)cc1)C1(O)CCCCC1 (stereo not shown) [1b, 4-(2-(Dimethylamino)-1-(1-hydroxycyclohexyl)ethyl)phenyl cyclohexanecarboxylate] | 
110 to 112 | CN(C)CC(c1ccc(OC(=O)C2CCCCCC2)cc1)C1(O)CCCCC1 (stereo not shown) [1e, 4-(2-(Dimethylamino)-1-(1-hydroxycyclohexyl)ethyl)phenyl cycloheptanecarboxylate] | 
157 to 159 | CC1CCC(C(=O)Oc2ccc(C(CN(C)C)C3(O)CCCCC3)cc2)CC1 (stereo not shown) [1c, 4-(2-(Dimethylamino)-1-(1-hydroxycyclohexyl)ethyl)phenyl 4-methylcyclohexanecarboxylate] | 
149 to 152 | CC(C)C1CCC(C(=O)Oc2ccc(C(CN(C)C)C3(O)CCCCC3)cc2)CC1 (stereo not shown) [1d, 4-(2-(Dimethylamino)-1-(1-hydroxycyclohexyl)ethyl)phenyl 4-isopropylcyclohexanecarboxylate] | 
